Source: PubChem BioAssay (NCI)
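Test compounds were applied to cells in 96-well plates for 48 hours at 5 doses. GI50: concentration for 50% inhibition of growth. TGI marks complete inhibition of growth.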

Legend:
Test in all cases: growth of human tumour cells (NCI), 48 h
[1] = system: A498 renal
[2] = system: HT29 colon
[3] = system: SN12C renal
[4] = system: MDA-MB-435
[5] = system: SK-MEL-2 melanoma
[6] = system: U251 CNS
[7] = system: HS 578T breast
[8] = system: BT-549 breast
[9] = system: MDA-N
[10] = system: DU-145 prostate
[11] = system: NCI-H460 lung
[12] = system: RXF 393 renal
[13] = system: CCRF-CEM leukemia
[14] = system: UACC-257 melanoma
[15] = system: UACC-62 melanoma
[16] = system: SK-MEL-28 melanoma
[17] = system: HOP-92 NSCLC
[18] = system: MALME-3M melanoma
[19] = system: COLO 205 colon
[20] = system: K-562 leukemia
[21] = system: MCF7 breast
[22] = system: SK-MEL-5 melanoma
[23] = system: MOLT-4 leukemia
[24] = system: HL-60(TB) leukemia
[25] = system: SR leukemia
[26] = system: SK-OV-3 ovarian
[27] = system: IGROV1 ovarian
[28] = system: LOX IMVI melanoma
[29] = system: MDA-MB-231 breast
[30] = system: KM12 colon
[31] = system: NCI/ADR-RES ovarian
[32] = system: SW-620 colon
[33] = system: HCT-116 colon
[34] = system: NCI-H23 lung
[35] = system: RPMI-8226 leukemia
[36] = system: HCC-2998 colon
[37] = system: UO-31 renal
[38] = system: SF-295 CNS
[39] = system: TK-10 renal
[40] = system: OVCAR-3 ovarian
[41] = system: OVCAR-4 ovarian
[42] = system: SNB-19 CNS
[43] = system: PC-3 prostate
[44] = system: T-47D breast
[45] = system: CAKI-1 renal
[46] = system: HCT-15 colon
[47] = system: OVCAR-5 ovarian
[48] = system: M14 melanoma
[49] = system: OVCAR-8 ovarian
[50] = system: NCI-H226 lung
[51] = system: HOP-62 NSCLC
[52] = system: SF-539 CNS
[53] = system: 786-0 renal
[54] = system: A549 NSCLC
[55] = system: EKVX NSCLC
[56] = system: ACHN renal
[57] = system: NCI-H522 lung
[58] = system: SNB-75 CNS
[59] = system: SF-268 CNS

SMILES: O=C1OCc2cc3cc4c(cc3c(-c3ccc5c(c3)OCO5)c21)OCO4 (tested in a mixture with another compound)
- TGI [1]: > 100 µM
- TGI [2]: > 100 µM
- TGI [3]: > 100 µM
- TGI [4]: > 100 µM
- TGI [5]: 68 µM
- TGI [6]: 43.7 µM
- TGI [7]: 80.9 µM
- TGI [8]: > 100 µM
- TGI [9]: 19.2 µM
- TGI [10]: 55.2 µM
- TGI [11]: > 100 µM
- TGI [12]: 22.5 µM
- TGI [13]: > 100 µM
- TGI [14]: > 100 µM
- TGI [15]: 68 µM
- TGI [16]: > 100 µM
- TGI [17]: 43.5 µM
- TGI [18]: > 100 µM
- TGI [19]: 75.1 µM
- TGI [20]: > 100 µM
- TGI [21]: > 100 µM
- TGI [22]: 33.6 µM
- TGI [23]: 72.5 µM
- TGI [24]: > 100 µM
- TGI [25]: > 100 µM
- TGI [26]: 48.1 µM
- TGI [27]: 66.7 µM
- TGI [28]: > 100 µM
- TGI [29]: 15.6 µM
- TGI [30]: > 100 µM
- TGI [31]: > 100 µM
- TGI [32]: > 100 µM
- TGI [33]: 13.7 µM
- TGI [34]: > 100 µM
- TGI [35]: > 100 µM
- TGI [36]: > 100 µM
- TGI [37]: 63.8 µM
- TGI [38]: 31.4 µM
- TGI [39]: 50.8 µM
- TGI [40]: 21.4 µM
- TGI [41]: > 100 µM
- TGI [42]: > 100 µM
- TGI [43]: > 100 µM
- TGI [44]: > 100 µM
- TGI [45]: 86.7 µM
- TGI [46]: > 100 µM
- TGI [47]: 96.8 µM
- TGI [48]: 32 µM
- TGI [49]: > 100 µM
- TGI [50]: 29.3 µM
- TGI [51]: 34.9 µM

SMILES: O=[N+]([O-])c1cc(Cl)cc2cc(Br)cnc12
- TGI [1]: > 31.6 µM
- TGI [2]: > 31.6 µM
- TGI [3]: > 31.6 µM
- TGI [4]: > 31.6 µM
- TGI [52]: > 31.6 µM
- TGI [5]: > 100 µM
- TGI [6]: > 31.6 µM
- TGI [7]: 28.3 µM
- TGI [8]: > 31.6 µM
- TGI [9]: > 31.6 µM
- TGI [10]: > 31.6 µM
- TGI [11]: > 31.6 µM
- TGI [12]: > 31.6 µM
- TGI [53]: > 31.6 µM
- TGI [13]: > 31.6 µM
- TGI [54]: > 31.6 µM
- TGI [14]: > 31.6 µM
- TGI [15]: > 31.6 µM
- TGI [16]: > 31.6 µM
- TGI [17]: > 23.5 µM
- TGI [18]: > 31.6 µM
- TGI [19]: > 31.6 µM
- TGI [20]: > 31.6 µM
- TGI [55]: > 31.6 µM
- TGI [56]: > 31.6 µM
- TGI [21]: > 31.6 µM
- TGI [22]: > 31.6 µM
- TGI [23]: > 31.6 µM
- TGI [24]: > 31.6 µM
- TGI [25]: > 31.6 µM
- TGI [27]: > 23.7 µM
- TGI [28]: > 31.6 µM
- TGI [29]: > 31.6 µM
- TGI [31]: > 31.6 µM
- TGI [32]: > 31.6 µM
- TGI [33]: > 31.6 µM
- TGI [57]: > 31.6 µM
- TGI [58]: > 31.6 µM
- TGI [34]: > 31.6 µM
- TGI [35]: > 31.6 µM
- TGI [36]: > 31.6 µM
- TGI [37]: > 31.6 µM
- TGI [38]: > 31.6 µM
- TGI [39]: > 31.6 µM
- TGI [40]: > 31.6 µM
- TGI [41]: > 31.6 µM
- TGI [42]: > 31.6 µM
- TGI [43]: > 31.6 µM
- TGI [44]: > 31.6 µM
- TGI [46]: > 31.6 µM
- TGI [47]: > 31.6 µM
- TGI [48]: > 31.6 µM
- TGI [49]: > 31.6 µM
- TGI [50]: > 31.6 µM
- TGI [51]: > 31.6 µM

SMILES: COc1ccc(CNc2nc3cc(N)cc(N)c3nc2-c2ccccc2)cc1
- GI50 [1]: > 100 µM
- TGI [1]: > 100 µM
- GI50 [2]: 24.5 µM
- TGI [2]: 60.2 µM
- GI50 [3]: 16.8 µM
- TGI [3]: 34.3 µM
- GI50 [4]: 10.1 µM
- TGI [4]: 21.7 µM
- GI50 [5]: 14.7 µM
- TGI [5]: 29.1 µM
- GI50 [6]: 13.6 µM
- TGI [6]: 26.5 µM
- GI50 [7]: 26.9 µM
- TGI [7]: > 100 µM
- GI50 [8]: 6.52 µM
- TGI [8]: 30.7 µM
- GI50 [9]: 14.2 µM
- TGI [9]: 27.7 µM
- GI50 [59]: 9.79 µM
- TGI [59]: 22 µM
- GI50 [10]: 21.7 µM
- TGI [10]: 58 µM
- GI50 [11]: 20.5 µM
- TGI [11]: 48.4 µM
- GI50 [12]: 5.32 µM
- TGI [12]: 18.4 µM
- GI50 [53]: 15.1 µM
- TGI [53]: 41.4 µM
- GI50 [13]: 3.36 µM
- TGI [13]: 65.3 µM
- GI50 [54]: 21.5 µM
- TGI [54]: 59.8 µM
- GI50 [14]: 16.3 µM
- TGI [14]: 30.4 µM
- GI50 [15]: 14.9 µM
- TGI [15]: 29.8 µM
- GI50 [16]: 17.3 µM
- TGI [16]: 32.3 µM
- GI50 [17]: 13 µM
- TGI [17]: 37.2 µM
- GI50 [18]: 10.7 µM
- TGI [18]: 22.5 µM
- GI50 [19]: 15.5 µM
- TGI [19]: 34.1 µM
- GI50 [20]: 25.4 µM
- TGI [20]: 97.1 µM
- GI50 [55]: 14.9 µM
- TGI [55]: 28.2 µM
- GI50 [56]: 14.9 µM
- TGI [56]: 33.6 µM
- GI50 [21]: 13.2 µM
- TGI [21]: 26.5 µM
- GI50 [22]: 17.6 µM
- TGI [22]: 31.4 µM
- GI50 [24]: 13.6 µM
- TGI [24]: 51.3 µM
- GI50 [25]: 4.09 µM
- TGI [25]: > 100 µM
- GI50 [27]: 12.9 µM
- TGI [27]: 27.1 µM
- GI50 [28]: 13.6 µM
- TGI [28]: 27.4 µM
- GI50 [29]: 2.9 µM
- TGI [29]: 13.8 µM
- GI50 [30]: 13.3 µM
- TGI [30]: 26.1 µM
- GI50 [31]: 22.7 µM
- TGI [31]: 83.3 µM
- GI50 [32]: 12.8 µM
- TGI [32]: 30 µM
- GI50 [33]: 14.4 µM
- TGI [33]: 27.5 µM
- GI50 [57]: 10 µM
- TGI [57]: 22 µM
- GI50 [34]: 16.8 µM
- TGI [34]: 34.4 µM
- TGI [35]: 15.9 µM
- GI50 [36]: 21.8 µM
- TGI [36]: 51.7 µM
- GI50 [37]: 11.4 µM
- TGI [37]: 28.7 µM
- GI50 [38]: 17.8 µM
- TGI [38]: 32.4 µM
- GI50 [39]: 28.1 µM
- TGI [39]: 57.8 µM
- GI50 [40]: 2.23 µM
- TGI [40]: 7.77 µM
- GI50 [41]: 8.12 µM
- TGI [41]: 21.3 µM
- GI50 [42]: 41.5 µM
- TGI [42]: > 100 µM
- GI50 [43]: 10.3 µM
- TGI [43]: 27.3 µM
- GI50 [44]: 2.8 µM
- TGI [44]: 11 µM
- GI50 [45]: 16.3 µM
- TGI [45]: 35.9 µM
- GI50 [46]: 15.9 µM
- TGI [46]: 34.5 µM
- GI50 [47]: 20.8 µM
- TGI [47]: 46.2 µM
- GI50 [48]: 18.1 µM
- TGI [48]: 32.2 µM
- GI50 [49]: 14.8 µM
- TGI [49]: 39.5 µM
- GI50 [50]: 20.2 µM
- TGI [50]: 70.5 µM
- GI50 [51]: 17.2 µM
- TGI [51]: 34.3 µM
